In PMC11992087, “A Bacteroides thetaiotaomicron genetic locus encodes activities consistent with mucin O-glycoprotein processing and N-acetylgalactosamine metabolism” (Nature Communications, 2025):
Values belong to the molecule of their own block, whether it stands above or below them.

Legend:
BT4244-CBM32 = molecular target: T1, BT4244-CBM32 (Bacteroides thetaiotaomicron, UniProt Q89ZX7); assay: ITC; assay type: binding; conditions: 20 mM Tris-HCl pH 7.5, 25 °C; single-site model
T1 construct: gene BT_4244
T1 sequence (Q89ZX7 145-285 limits assumed): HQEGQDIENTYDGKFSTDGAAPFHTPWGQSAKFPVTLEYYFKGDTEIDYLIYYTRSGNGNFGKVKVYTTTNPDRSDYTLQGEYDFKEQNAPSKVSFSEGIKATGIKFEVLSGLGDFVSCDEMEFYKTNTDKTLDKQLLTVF

BT4245-SGBP = molecular target: T2, BT4245-SGBP (Bacteroides thetaiotaomicron, UniProt Q89ZX6); assay: ITC; assay type: binding; conditions: 20 mM Tris-HCl pH 7.5, 25 °C; single-site model
T2 construct: gene BT_4245; full-length mature protein, signal peptide removed, His-tagged, from E. coli
T2 sequence (Q89ZX6 21-430): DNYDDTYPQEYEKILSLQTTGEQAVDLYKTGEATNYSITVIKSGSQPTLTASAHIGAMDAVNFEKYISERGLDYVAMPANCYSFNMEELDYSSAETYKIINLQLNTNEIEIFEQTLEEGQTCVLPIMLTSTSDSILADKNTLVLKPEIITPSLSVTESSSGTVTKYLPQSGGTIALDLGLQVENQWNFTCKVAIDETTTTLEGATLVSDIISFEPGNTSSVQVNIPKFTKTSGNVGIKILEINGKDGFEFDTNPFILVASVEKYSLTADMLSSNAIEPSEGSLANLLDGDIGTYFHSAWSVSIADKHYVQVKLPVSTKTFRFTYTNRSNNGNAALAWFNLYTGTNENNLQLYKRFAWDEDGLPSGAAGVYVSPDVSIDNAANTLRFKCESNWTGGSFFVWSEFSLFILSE

BT4246-SusD-like [1] = molecular target: T3, BT4246-SusD-like (Bacteroides thetaiotaomicron, UniProt Q89ZX5); assay: ITC; assay type: binding; set-up: gene BT_4246; mature form, signal peptide removed, His-tagged, from E. coli (ITC); conditions: 20 mM Tris-HCl pH 7.5, 25 °C; single-site model
T3 sequence (Q89ZX5 25-642): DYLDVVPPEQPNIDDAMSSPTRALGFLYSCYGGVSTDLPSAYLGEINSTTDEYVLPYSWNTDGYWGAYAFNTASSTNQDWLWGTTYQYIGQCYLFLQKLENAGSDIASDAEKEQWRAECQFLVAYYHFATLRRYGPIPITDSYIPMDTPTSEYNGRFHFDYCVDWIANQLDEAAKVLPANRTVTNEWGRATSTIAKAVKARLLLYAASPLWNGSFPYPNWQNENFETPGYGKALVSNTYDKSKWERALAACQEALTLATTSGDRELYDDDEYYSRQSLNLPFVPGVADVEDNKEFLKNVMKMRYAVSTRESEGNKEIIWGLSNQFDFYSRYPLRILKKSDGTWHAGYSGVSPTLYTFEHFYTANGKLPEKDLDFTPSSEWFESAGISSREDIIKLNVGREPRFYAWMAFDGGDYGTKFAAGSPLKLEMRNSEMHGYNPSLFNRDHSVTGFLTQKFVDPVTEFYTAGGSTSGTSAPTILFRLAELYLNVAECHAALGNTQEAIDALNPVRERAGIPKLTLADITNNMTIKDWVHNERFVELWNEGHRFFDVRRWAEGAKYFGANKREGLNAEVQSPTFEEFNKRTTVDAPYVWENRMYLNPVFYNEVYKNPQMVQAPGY

BT4246-SusD-like [2] = molecular target: T3, BT4246-SusD-like; assay: X-ray crystal structure, […] Å; assay type: binding; set-up: gene BT_4246; residues 25-642, His-tag removed by TEV protease, from E. coli (crystal); conditions: crystals soaked in 4% PGMIII O-glycan oligosaccharides; only the terminal Gal of an undefined oligosaccharide is modelled, not free galactose
[3] = substrate: CC(=O)N[C@H]1[C@@H](Oc2ccc([N+](=O)[O-])cc2)O[C@H](CO)[C@H](O)[C@@H]1O; assay: 4-nitrophenol release at A400; assay type: biochemical, Bacteroides thetaiotaomicron; conditions: 20 mM MOPS pH 7.0, 37 °C, 0.4 µM enzyme
Protocol: 4-nitrophenol release at A400 on BT4243-GH109 | between GalNAc and serine in Tn antigen as well as PNP-α-GalNAc | enzyme (final) was added to substrate (PNP-α-GalNAc or PNP-β-GalNAc, respectively)

Molecule: CC(=O)N[C@H]1C(O)O[C@H](CO)[C@H](O)[C@@H]1O (some centres unmarked) [GalNAc]
- Ka (BT4244-CBM32): 0.40 (±0.03) × 10^4
- Ka (BT4245-SGBP): 1.20 (±0.2) × 10^4

Molecule: OC[C@H]1OC(O)[C@H](O)[C@@H](O)[C@H]1O (some centres unmarked) [Gal]
- Ka (BT4244-CBM32): 0.16 (±0.01) × 10^4
- Ka (BT4245-SGBP): > 0.1 × 10^4

- Ka (BT4244-CBM32): 0.20 (±0.01) × 10^4
- Ka (BT4246-SusD-like [1]): 0.45 (±0.03) × 10^4
Molecule: CC(=O)N[C@H]1C(O)O[C@H](CO)[C@H](O)[C@@H]1O[C@@H]1O[C@H](CO)[C@H](O)[C@H](O)[C@H]1O (some centres unmarked) [core 1 disaccharide]

- Ka (BT4246-SusD-like [1]): 0.13 (±0.07) × 10^4
Molecule: CC(=O)N[C@H]1C(O)O[C@H](CO)[C@@H](O)[C@@H]1O[C@@H]1O[C@H](CO)[C@H](O)[C@H](O)[C@H]1O (some centres unmarked) [lacto-N-biose]

- Ka (BT4244-CBM32): 0.23 (±0.00) × 10^4
Molecule: OC[C@H]1O[C@@H](O[C@H]2[C@H](O)[C@@H](O)C(O)O[C@@H]2CO)[C@H](O)[C@@H](O)[C@H]1O (some centres unmarked) [lactose]

Molecule: OC[C@H]1OC(O)[C@H](O)[C@@H](O)[C@H]1O (some centres unmarked) [terminal Gal from a mucin O-glycan oligosaccharide]
- X-ray crystal structure, 1.8 Å (BT4246-SusD-like [2]): In the resulting structure, unambiguous electron density was observed for a β-linked Gal

B1: BT4243-GH109 (Bacteroides thetaiotaomicron VPI-5482) (protein)
chain: QKTKAKFSPIKVETPARPANQQDVIQLVTPKLETVRVGFIGLGMRGPGAVERWTHIPGTQIVALCDLLPERVENAQKILEKAGLPKAASYAGDEKAWKKLCERDDIDVVYIATDWKHHADMGVYAMEHGKHVAIEVPAAMTLDEIWKLINTSEKTRKHCMQLENCVYDFFELTSLNMAQQGVFGEVLHVEGAYIHNLEDFWPYYWNNWRMDYNQKHRGDVYATHGMGPACQVLNIHRGDRMKTLVAMDTKAVNGPAYIKKSTGKEVKDFQNGDQTTTLIRTENGKTMLIQHNVMTPRPYSRMYQVVGADGYASKYPIEEYCLRPTQVDSNDVPNHEKLNAHGSVSEDVKKALMAKYKDPIHKELEETAKKVGGHGGMDYIMDYRLVYCLRNGLPLDMDVYDLAEWCCMAELTRLSIENGSAPVEVPDFTRGGWNKVQGYRHAFAE
notes: mature form, signal peptide removed, His-tagged, from E. coli
- Km [3]: 0.03 (±0.005) mM
- kcat [3]: 2.1 (±0.3) s-1
